According to US20260184773A1, “THERAPEUTIC SINGLE DOMAIN ANTIBODY” (priority 2021, published 2026):

What was measured:
[1] = tested on: MDA-MB-231 cells; test: Cell penetration by immunofluorescence/confocal microscopy; type: cell-based, human; settings: MDA-MB-231 cells, fluorescence microscopy
[2] = tested on: tSTAT3, pSTAT3 and PD-L1 in MDA-MB-231 cells; test: Immunoblot (slot blot) of tSTAT3, pSTAT3 and PD-L1; type: cell-based, human; settings: MDA-MB-231, 3, 6 and 24 hours, β-actin normalized, 50-100 ug/ml
[3] = tested on: B7-H3, OX-2 and PD-L1 on SJSA-1 osteosarcoma cells; test: Flow cytometry of checkpoint molecule cell surface expression; type: cell-based, human
Experimental: Cells were then harvested and stained with the following antibodies: CD276 (Clone MIH-42, Biolegend), CD274 (Clone 29E.2A3, Bilegend), and CD200 (Clone OX-104, Bilegend). Upon staining, samples were run through a BD Celesta Flow Cytometer and data were analyzed using FlowJo software.
Checkpoint molecules are expressed on the surface of tumor cells and ultimately stifle the functioning of activated of T cells, contributing to the immunosuppressive tumor microenvironment. Inflammatory cytokines such as IL-6 and IFN-γ drive the expression of checkpoint molecules such as PD-L1 (CD274), B7-H3 (CD276), and OX-2 (CD200). […] B7-H3 decreased by approximately 3-fold, OX-2 decreased by approximately 4-fold, and PD-L1 decreased by approximately 4-fold. […] Interferon (IFN)-y is known to induce PD-L1 expression and both the intracellular and membrane staining increased following treatment with IFN-γ (data not shown).

[4] = tested on: HEK 293 IL-6 STAT3 reporter cell line; test: STAT3 luciferase reporter assay after IL-6 stimulation; type: cell-based; settings: dose of 100 μg/mL
Experimental: Promega Dual Luciferase Reporter Assay System […]: In this assay, a HEK 293 IL-6 STAT3 reporter cell line (Promega, Madison WI) was used to measure STAT3 transcriptional activity. In this cell line, induction with 40 ng/ml of IL-6 activates STAT3 transcription factors to drive luciferase reporter expression which can then be measured on a standard luminometer. […] IL-6 was added during the last 18 hours of incubation. […] At 48 hours, cells underwent lysis and luminescence measurements were made using a BMG Labtech microplate reader. Results are expressed as a percent of control wells (cells+IL-6).
Reporter cell assays were done to measure luciferase expression from HEK 293 cells transfected with a construct linking the STAT3 promoter to the luciferase gene.

[5] = target: T1, phosphorylated STAT3 (Homo sapiens, UniProt P40763); test: Immunoprecipitation from cell lysates, Western blot; type: binding; settings: Dynabeads preloaded with SBT-100, 1 hour at 4° C.
T1 construct: endogenous in cells; host or cells: HeLa + IFN-γ (P-STAT3 lane); also PANC-1, DU145, PC-3 and 4T1 (mouse)
Text: It has been previously shown that SPT-100 can bind unphosphorylated STAT3. […] Bound proteins were separated by SDS-PAGE followed by Western blot analysis using STAT3 (79D7) rabbit mAb #4904.

[6] = tested on: ENBOV (Ebola) in HeLa; type: cell-based, Ebola virus; settings: HeLa, ENBOV (Ebola)
[7] = tested on: ENBOV (Ebola) in HFF; type: cell-based, Ebola virus; settings: HFF, ENBOV (Ebola)
[8] = tested on: Zika in Vero; type: cell-based, Zika virus
[9] = tested on: TC83 in BE3M27; type: cell-based, Venezuelan Equine Encephalitis (TC83) virus
[10] = tested on: TC83 in U87MG; type: cell-based, Venezuelan Equine Encephalitis (TC83) virus
[11] = tested on: VEGF production by retinal epithelial cells (ARPE-19)
[12] = mice
[13] = tested on: PANC-1; test: MTT assay
[14] = tested on: MDA-MB-468; test: MTT assay
[15] = tested on: MDA-M-453; test: MTT assay
[16] = tested on: MCF-7; test: MTT assay
[17] = tested on: BT474; test: MTT assay
[18] = tested on: U87; test: MTT assay
[19] = tested on: SJSA; test: MTT assay
[20] = tested on: HT-1080; test: MTT assay
[21] = tested on: DU-145; test: MTT assay

T1 sequence (P40763 2-770 limits assumed): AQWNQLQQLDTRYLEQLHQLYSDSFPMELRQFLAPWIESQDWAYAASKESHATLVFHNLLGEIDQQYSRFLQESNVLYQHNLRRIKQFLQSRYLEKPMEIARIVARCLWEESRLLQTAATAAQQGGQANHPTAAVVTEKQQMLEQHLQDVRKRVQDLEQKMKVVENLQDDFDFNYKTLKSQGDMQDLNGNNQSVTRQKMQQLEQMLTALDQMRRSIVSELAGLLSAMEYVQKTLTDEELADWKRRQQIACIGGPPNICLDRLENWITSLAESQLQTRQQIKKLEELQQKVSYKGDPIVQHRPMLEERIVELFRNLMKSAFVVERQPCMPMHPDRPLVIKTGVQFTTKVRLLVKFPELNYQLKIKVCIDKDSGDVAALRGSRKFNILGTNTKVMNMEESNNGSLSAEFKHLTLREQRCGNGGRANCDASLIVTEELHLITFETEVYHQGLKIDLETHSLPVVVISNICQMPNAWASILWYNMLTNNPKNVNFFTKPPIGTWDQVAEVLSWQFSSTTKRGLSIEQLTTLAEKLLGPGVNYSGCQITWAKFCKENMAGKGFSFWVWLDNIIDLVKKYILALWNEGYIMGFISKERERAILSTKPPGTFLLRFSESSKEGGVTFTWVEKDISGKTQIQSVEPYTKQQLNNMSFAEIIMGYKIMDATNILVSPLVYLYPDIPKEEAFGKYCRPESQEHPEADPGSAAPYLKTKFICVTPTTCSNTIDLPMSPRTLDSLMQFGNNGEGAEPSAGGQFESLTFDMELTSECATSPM

SBT-100: 15 kDa camelid single domain antibody (VHH), SEQ ID NO: 1, binds both STAT3 and KRAS
Intracellular staining/localization of VHH [1]: exhibited intracellular localization
Levels of tSTAT3, pSTAT3 and PD-L1 [2]: reduced levels
Decrease of B7-H3 cell surface expression ([3]; SJSA-1, IFN-γ stimulation): approximately 3 fold
Decrease of OX-2 cell surface expression ([3]; SJSA-1, IFN-γ stimulation): approximately 4 fold
Decrease of PD-L1 cell surface expression ([3]; SJSA-1, IFN-γ stimulation): approximately 4 fold
Inhibition of PD-L1 cell surface expression ([3]; within 24-48 hours): 10 fold
Reduction in IL-6 induced pSTAT3 binding to its DNA promotor [4]: ~100%
Binding of phosphorylated STAT3 from cell lysates [5]: binding
Comment [6]: Inhibits Ebola virus replication
EC50 [6]: 1.27 µM
Comment [7]: Inhibits Ebola virus replication
EC50 [7]: 2.56 µM
EC50 [8]: 0.74 µM
Comment [9]: Inhibits Venezuelan Equine
EC50 [9]: 5.94 µM
Comment [10]: Inhibits Venezuelan Equine
EC50 [10]: 2.53 µM
Cell toxicity [11]: No cell toxicity was observed
Suppression of VEGF protein production ([11]; 100 μg/ml, 12, 24, and 48-hour time points): > 99%
Serum half-life [12]: 1 h
IC50 ([13]; PANC-1): 0.38 µM
% Inhibition in 3 days with SBT-100 (SEQ ID NO: 1) ug/ml or 6.7 uM) ([13]; PANC-1, 3 days, 6.7 uM): 85% (P < 0.001)
IC50 ([14]; MDA-MB-468): 0.83 µM
% Inhibition in 3 days with SBT-100 (SEQ ID NO: 1) ug/ml or 6.7 uM) ([14]; MDA-MB-468, 3 days, 6.7 uM): 85% (P < 0.001)
IC50 ([15]; MDA-M-453): 1.19 µM
% Inhibition in 3 days with SBT-100 (SEQ ID NO: 1) ug/ml or 6.7 uM) ([15]; MDA-M-453, 3 days, 6.7 uM): 64% (P < 0.001)
IC50 ([16]; MCF-7): 0.99 µM
% Inhibition in 3 days with SBT-100 (SEQ ID NO: 1) ug/ml or 6.7 uM) ([16]; MCF-7, 3 days, 6.7 uM): 93% (P < 0.001)
IC50 ([17]; BT474): 1.68 µM
% Inhibition in 3 days with SBT-100 (SEQ ID NO: 1) ug/ml or 6.7 uM) ([17]; BT474, 3 days, 6.7 uM): 93% (P < 0.001)
IC50 ([18]; U87): 4.32 µM
% Inhibition in 3 days with SBT-100 (SEQ ID NO: 1) ug/ml or 6.7 uM) ([18]; U87, 3 days, 6.7 uM): 62% (P < 0.001)
IC50 [19]: 3.39 µM
% Inhibition in 3 days with SBT-100 (SEQ ID NO: 1) ug/ml or 6.7 uM) ([19]; 3 days, 6.7 uM): 83% (P < 0.001)
IC50 ([20]; HT-1080): 2.13 µM
% Inhibition in 3 days with SBT-100 (SEQ ID NO: 1) ug/ml or 6.7 uM) ([20]; HT-1080, 3 days, 6.7 uM): 86% (P < 0.001)
IC50 ([21]; DU-145): 1.46 µM
% Inhibition in 3 days with SBT-100 (SEQ ID NO: 1) ug/ml or 6.7 uM) ([21]; DU-145, 3 days, 6.7 uM): 92% (P < 0.001)
